Results published in patent US11306092B2, “Amino indole compounds useful as TLR inhibitors” (BRISTOL-MYERS SQUIBB COMPANY, priority 2017, dated 2022).
pIC50: −log10 of the molar value.

Legend:
Assay type in all cases: cell-based
human TLR7 = target: T1, human TLR7 (Homo sapiens, UniProt Q9NYK1); test: TLR7 inhibition reporter assay (HEK-Blue SEAP reporter); settings: HEK-Blue cells overexpressing human TLR7; gardiquimod 7.5 μM; 22 hour incubation
T1 construct: host or cells: HEK-Blue cells
T1 sequence (Q9NYK1 27-1049): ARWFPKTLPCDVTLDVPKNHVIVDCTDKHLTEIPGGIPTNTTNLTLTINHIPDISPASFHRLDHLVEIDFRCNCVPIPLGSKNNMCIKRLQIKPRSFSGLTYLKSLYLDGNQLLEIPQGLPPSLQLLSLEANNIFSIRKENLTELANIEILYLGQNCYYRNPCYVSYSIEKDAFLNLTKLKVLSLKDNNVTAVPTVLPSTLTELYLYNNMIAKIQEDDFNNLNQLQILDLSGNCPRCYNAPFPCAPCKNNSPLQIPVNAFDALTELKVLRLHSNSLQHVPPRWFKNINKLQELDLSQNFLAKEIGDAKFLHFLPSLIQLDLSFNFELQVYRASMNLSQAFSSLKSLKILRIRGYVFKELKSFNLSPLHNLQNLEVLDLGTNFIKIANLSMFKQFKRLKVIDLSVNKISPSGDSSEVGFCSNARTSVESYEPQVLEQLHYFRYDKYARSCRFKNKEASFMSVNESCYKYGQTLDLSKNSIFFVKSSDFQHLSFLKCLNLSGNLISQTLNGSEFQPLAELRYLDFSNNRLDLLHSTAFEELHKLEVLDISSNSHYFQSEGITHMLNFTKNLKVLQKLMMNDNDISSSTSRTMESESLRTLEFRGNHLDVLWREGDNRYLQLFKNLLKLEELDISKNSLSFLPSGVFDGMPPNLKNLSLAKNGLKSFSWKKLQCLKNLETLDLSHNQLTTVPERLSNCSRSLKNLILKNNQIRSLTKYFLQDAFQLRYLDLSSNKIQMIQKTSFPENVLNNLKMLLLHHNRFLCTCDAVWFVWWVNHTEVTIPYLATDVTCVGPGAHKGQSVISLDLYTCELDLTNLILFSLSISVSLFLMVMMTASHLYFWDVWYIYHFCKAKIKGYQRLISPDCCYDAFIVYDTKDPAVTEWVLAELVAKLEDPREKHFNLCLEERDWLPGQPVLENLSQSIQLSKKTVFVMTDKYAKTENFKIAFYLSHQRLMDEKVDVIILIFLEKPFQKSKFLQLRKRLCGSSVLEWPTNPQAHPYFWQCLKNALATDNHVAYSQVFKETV
In short: (§1)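 Dose–response from 0.05 nM to 50 μM was run in HEK-Blue human TLR7, TLR8 and TLR9 reporter cells. After 30 min at room temperature with compound, ligand was added (TLR7 gardiquimod 7.5 μM; TLR8 R848 15.9 μM; TLR9 ODN2006 5 nM) and SEAP measured next day, at 22 h.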

human TLR8 = target: T2, human TLR8 (Homo sapiens, UniProt Q9NR97); test: TLR8 inhibition reporter assay (HEK-Blue SEAP reporter); settings: HEK-Blue cells overexpressing human TLR8; R848 15.9 μM; 22 hour incubation
T2 construct: host or cells: HEK-Blue cells
T2 sequence (Q9NR97 27-1041): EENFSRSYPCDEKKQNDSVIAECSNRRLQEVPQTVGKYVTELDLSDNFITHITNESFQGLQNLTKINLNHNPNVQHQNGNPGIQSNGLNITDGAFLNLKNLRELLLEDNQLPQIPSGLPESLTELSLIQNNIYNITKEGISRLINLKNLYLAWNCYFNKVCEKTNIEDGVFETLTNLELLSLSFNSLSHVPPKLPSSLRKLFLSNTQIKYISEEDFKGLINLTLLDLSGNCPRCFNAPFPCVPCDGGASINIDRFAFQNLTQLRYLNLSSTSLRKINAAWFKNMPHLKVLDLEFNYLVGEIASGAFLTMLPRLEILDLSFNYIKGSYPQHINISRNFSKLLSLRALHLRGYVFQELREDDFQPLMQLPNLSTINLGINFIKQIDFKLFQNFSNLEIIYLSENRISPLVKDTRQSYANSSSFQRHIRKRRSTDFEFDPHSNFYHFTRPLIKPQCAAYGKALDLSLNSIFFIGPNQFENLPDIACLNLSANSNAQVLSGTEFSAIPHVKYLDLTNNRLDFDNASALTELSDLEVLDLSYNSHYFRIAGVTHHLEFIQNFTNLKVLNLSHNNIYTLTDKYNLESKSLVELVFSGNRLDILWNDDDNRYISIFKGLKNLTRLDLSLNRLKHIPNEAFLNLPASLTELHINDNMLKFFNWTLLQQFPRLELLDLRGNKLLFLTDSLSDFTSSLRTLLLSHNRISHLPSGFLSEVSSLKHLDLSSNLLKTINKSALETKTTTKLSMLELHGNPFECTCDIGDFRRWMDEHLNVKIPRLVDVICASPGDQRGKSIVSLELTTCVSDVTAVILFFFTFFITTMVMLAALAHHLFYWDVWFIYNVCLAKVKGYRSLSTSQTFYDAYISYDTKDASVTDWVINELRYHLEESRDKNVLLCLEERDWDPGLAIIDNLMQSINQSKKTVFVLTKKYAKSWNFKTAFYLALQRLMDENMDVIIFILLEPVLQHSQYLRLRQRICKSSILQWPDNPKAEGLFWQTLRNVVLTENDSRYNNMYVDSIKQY
Description: TLR7/8/9 Inhibition Reporter Assays
HEK-Blue™-cells (Invivogen) overexpressing human TLR7, TLR8 or TLR9 receptors were used for screening inhibitors of these receptors using an inducible SEAP (secreted embryonic alkaline phosphatase) reporter gene under the control of the IFN-β minimal promoter fused to five NF-κB and AP-1-binding sites. Briefly, cells are seeded into Greiner 384 well plates (15000 cells per well for TLR7, 20,000 for TLR8 and 25,000 for TLR9) and then treated with test compounds in DMSO to yield a final dose response concentration range of 0.05 nM-50 μM. After a 30 minute compound pre-treatment at room temperature, the cells are then stimulated with a TLR7 ligand (gardiquimod at a final concentration of 7.5 μM), TLR8 ligand (R848 at a final concentration of 15.9 μM) or TLR9 ligand (ODN2006 at a final concentration of 5 nM) to activate NF-κB and AP-1 which induce the production of SEAP. After a 22 hour incubation at 37° C., 5% CO2, SEAP levels are determined with the addition of HEK-Blue™ Detection reagent (Invivogen), a cell culture medium that allows for detection of SEAP, according to manufacturer's specifications. The percent inhibition is determined as the % reduction in the HEK-Blue signal present in wells treated with agonist plus DMSO alone compared to wells treated with a known inhibitor.

human TLR9 = target: T3, human TLR9 (Homo sapiens, UniProt Q9NR96); test: TLR9 inhibition reporter assay (HEK-Blue SEAP reporter); settings: HEK-Blue cells overexpressing human TLR9; ODN2006 5 nM; 22 hour incubation
T3 construct: host or cells: HEK-Blue cells
T3 sequence (Q9NR96 26-1032): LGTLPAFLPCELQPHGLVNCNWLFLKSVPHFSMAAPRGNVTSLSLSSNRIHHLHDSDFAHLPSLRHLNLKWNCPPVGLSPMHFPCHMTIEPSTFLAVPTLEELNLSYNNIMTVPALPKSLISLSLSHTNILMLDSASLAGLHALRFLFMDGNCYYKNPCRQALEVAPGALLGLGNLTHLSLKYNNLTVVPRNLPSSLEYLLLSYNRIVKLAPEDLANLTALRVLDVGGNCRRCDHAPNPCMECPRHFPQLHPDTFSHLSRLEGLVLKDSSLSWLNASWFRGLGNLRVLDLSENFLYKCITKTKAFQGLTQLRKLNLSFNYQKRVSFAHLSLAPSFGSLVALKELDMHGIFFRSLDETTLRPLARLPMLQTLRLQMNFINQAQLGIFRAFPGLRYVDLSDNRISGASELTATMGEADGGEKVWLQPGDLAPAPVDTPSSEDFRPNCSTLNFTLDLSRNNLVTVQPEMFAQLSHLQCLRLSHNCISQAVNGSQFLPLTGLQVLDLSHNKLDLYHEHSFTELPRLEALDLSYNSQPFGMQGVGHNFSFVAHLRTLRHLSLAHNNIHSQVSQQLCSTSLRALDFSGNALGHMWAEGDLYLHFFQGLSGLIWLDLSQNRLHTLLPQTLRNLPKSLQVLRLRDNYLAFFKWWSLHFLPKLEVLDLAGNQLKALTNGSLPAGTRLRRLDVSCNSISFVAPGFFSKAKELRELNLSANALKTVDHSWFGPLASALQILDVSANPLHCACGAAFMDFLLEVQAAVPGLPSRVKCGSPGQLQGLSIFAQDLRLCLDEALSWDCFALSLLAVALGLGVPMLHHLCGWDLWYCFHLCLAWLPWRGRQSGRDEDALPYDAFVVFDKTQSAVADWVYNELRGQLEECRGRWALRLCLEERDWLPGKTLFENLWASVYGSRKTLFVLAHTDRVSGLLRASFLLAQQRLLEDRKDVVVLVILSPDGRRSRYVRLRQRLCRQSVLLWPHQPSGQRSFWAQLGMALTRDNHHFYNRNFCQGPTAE
In short: as §1

Compound: CCC[C@@H](N)C(=O)Nc1ccc2[nH]c(-c3ccc(OC)c(OC)c3)c(C(C)C)c2c1 [Example 14, (R)-2-amino-N-(2-(3,4-dimethoxyphenyl)-3-isopropyl-1H-indol-5-yl)pentanamide]
- pIC50 (human TLR7): 6.46
- pIC50 (human TLR8): 7.17
- pIC50 (human TLR9): 5.11

Compound: Cc1cc(-c2[nH]c3ccc(N4CCC(N5CCN(C(C)C)CC5)C4=O)cc3c2C(C)C)cc(C)n1 (single isomer, unassigned) [Example 5, 1-(2-(2,6-dimethylpyridin-4-yl)-3-isopropyl-1H-indol-5-yl)-3-(4-isopropylpiperazin-1-yl) pyrrolidin-2-one]
- pIC50 (human TLR7): 8.19
- pIC50 (human TLR8): 8.24
- pIC50 (human TLR9): 6.22

Compound: COc1ccc(-c2[nH]c3ccc(N4CCC(N5CCN(c6ccncc6)CC5)CC4)cc3c2C(C)C)cc1OC [Example 94, 2-(3,4-dimethoxyphenyl)-3-isopropyl-5-(4-(4-(pyridin-4-yl)piperazin-1-yl)piperidin-1-yl)-1H-indole]
- pIC50 (human TLR7): 7.48
- pIC50 (human TLR8): 8.46
- pIC50 (human TLR9): 6.09

Compound: COc1ccc(-c2[nH]c3ccc(N4CCC(=O)N(CCN(C)C)CC4)cc3c2C(C)C)cc1OC [Example 107, 1-(2-(3,4-dimethoxyphenyl)-3-isopropyl-1H-indol-5-yl)-4-(2-(dimethylamino)ethyl)-1,4-diazepan-5-one]
- pIC50 (human TLR7): 7.51
- pIC50 (human TLR8): 7.26
- pIC50 (human TLR9): 5.46

Compound: Cc1cc(-c2[nH]c3ccc(N4CCNC4=O)cc3c2C(C)C)ccn1 [Example 8, 1-(3-isopropyl-2-(2-methylpyridin-4-yl)-1H-indol-5-yl)imidazolidin-2-one]
- pIC50 (human TLR7): 7.04
- pIC50 (human TLR8): 7.60
- pIC50 (human TLR9): < 4.30

Compound: COc1ccc(-c2[nH]c3ccc(N4CCN(C5CCN(CC(C)C)CC5)CC4)cc3c2C)cc1OC [Example 170, 2-(3,4-dimethoxyphenyl)-5-(4-(1-isobutylpiperidin-4-yl)piperazin-1-yl)-3-methyl-1H-indole]
- pIC50 (human TLR7): 4.72
- pIC50 (human TLR8): 4.31
- pIC50 (human TLR9): 6.33

Compound: CCc1c(-c2ccc(OC)c(OC)c2)[nH]c2ccc(N3CCC4(CCN(C)CC4)CC3)cc12 [Example 181, 3-(2-(3,4-dimethoxyphenyl)-3-ethyl-1H-indol-5-yl)-9-methyl-3,9-diazaspiro[5.5]undecane]
- pIC50 (human TLR7): 7.27
- pIC50 (human TLR8): 7.13
- pIC50 (human TLR9): 6.29

Compound: CCc1c(-c2ccnc(C)c2)[nH]c2ccc(N3CCC(OC4CCN(C(C)C)CC4)CC3)cc12 [Example 182, 3-ethyl-5-(4-((1-isopropylpiperidin-4-yl)oxy)piperidin-1-yl)-2-(2-methylpyridin-4-yl)-1H-indole]
- pIC50 (human TLR8): 4.32
- pIC50 (human TLR9): 6.18

Compound: CC(C)c1c(-c2ccnc3[nH]ncc23)[nH]c2ccc(N3CCN(C4CCN(C(C)C)CC4)CC3)cc12 [Example 168, 4-(3-isopropyl-5-(4-(1-isopropylpiperidin-4-yl)piperazin-1-yl)-1H-indol-2-yl)-1H-pyrazolo[3,4-b]pyridine]
- pIC50 (human TLR7): < 4.30
- pIC50 (human TLR8): 4.32
- pIC50 (human TLR9): 6.59

Compound: COc1ccc(-c2[nH]c3ccc(NC(=O)[C@H](N)CC(N)=O)cc3c2C(C)C)cc1OC [Example 19, (R)-2-amino-N1-(2-(3,4-dimethoxyphenyl)-3-isopropyl-1H-indol-5-yl)succinamide]
- pIC50 (human TLR7): 6.36
- pIC50 (human TLR8): 7.01

Compound: COc1ccc(-c2[nH]c3ccc(N4CCC(CCN(C)C)CC4)cc3c2C(C)C)cc1OC [Example 71, 2-(1-(2-(3,4-dimethoxyphenyl)-3-isopropyl-1H-indol-5-yl)piperidin-4-yl)-N,N-dimethylethan-1-amine]
- pIC50 (human TLR8): < 4.30
- pIC50 (human TLR9): 6.22

Compound: CCN1CCC(N2CCN(c3ccc4[nH]c(-c5ccc(OC)c(OC)c5)c(C)c4c3)CC2)CC1 [Example 155, 2-(3,4-dimethoxyphenyl)-5-(4-(1-ethylpiperidin-4-yl)piperazin-1-yl)-3-methyl-1H-indole]
- pIC50 (human TLR8): < 4.30
- pIC50 (human TLR9): 6.35

Compound: COc1ccc(-c2[nH]c3ccc(NC(=O)[C@@H](N)CC(N)=O)cc3c2C(C)C)cc1OC [Example 18, (S)-2-amino-N1-(2-(3,4-dimethoxyphenyl)-3-isopropyl-1H-indol-5-yl)succinamide]
- pIC50 (human TLR7): 6.55
- pIC50 (human TLR8): 7.05
